Values joined by “and” are separate entries in the source; they are usually repeats but may differ in a detail not shown here. Equal entries are not always repeated.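 Following 48 hours of exposure in 96-well plates, responses at five concentrations were used to interpolate endpoints linearly. At the GI50, growth is halved. TGI denotes the concentration required for complete inhibition of growth.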
What was measured:
Experiment in all cases: NCI anticancer screen, dose series, 48 h
[1] = test system: K-562 leukemia
[2] = test system: BT-549 breast
[3] = test system: LOX IMVI melanoma
[4] = test system: EKVX NSCLC
[5] = test system: NCI-H226 lung
[6] = test system: COLO 205 colon
[7] = test system: NCI-H460 lung
[8] = test system: OVCAR-5 ovarian
[9] = test system: MCF7 breast
[10] = test system: NCI-H522 lung

| Compound | GI50 [1] | TGI [1] | GI50 [2] [µM] | TGI [2] [µM] | GI50 [3] [µM] | TGI [3] | GI50 [4] [µM] | TGI [4] [µM] | GI50 [5] [µM] | TGI [5] [µM] | GI50 [6] | TGI [6] | GI50 [7] [µM] | TGI [7] [µM] | GI50 [8] [µM] | TGI [8] [µM] | GI50 [9] [µM] | TGI [9] [µM] | GI50 [10] [µM] | TGI [10] [µM] |
| --- | --- | --- | --- | --- | --- | --- | --- | --- | --- | --- | --- | --- | --- | --- | --- | --- | --- | --- | --- | --- |
| COc1ccc2c(c1)c(-c1ccc(-c3cn(C)c4ccc(OC)cc34)o1)cn2C | 2.86 µM | > 100 µM | 5.11 | 18.2 | 10.4 | > 100 µM | 5.48 | 23.4 | 23.6 | > 100 | 5.13 µM | 31.1 µM | 9.89 | > 100 | 2.79 | 10.6 | 17.3 | > 100 | 3.42 | 10 |
| COC1C(O)CC(OC2CC(OC3CC(O[C@@H]4C(=O)c5c(cc6cc(OC7CC(OC8CC(O)C(O)C(C)O8)C(O)C(C)O7)c(C)c(O)c6c5O)CC4[C@H](OC)[C@@H](O)C(C)=O)OC(C)C3O)OC(C)C2O)OC1C (stereo not given in full) | 0.0163 µM | > 33.3 µM | < 0.0292 | 12.5 | 0.0067 | 0.0325 µM | 0.014 | > 33.3 | 0.0507 | 0.181 | 0.0113 µM | 0.0639 µM | 0.00673 | > 33.3 | 0.0309 | > 33.3 | 0.00649 | > 33.3 | 0.016 | 0.0648 |
| O=S(=O)(NCCNc1cc(-c2cn(-c3ccccc3)nc2-c2cccc(O)c2)ccn1)c1ccc(Br)cc1 | 1.98 µM | 5.49 µM | 2.52 | 6.87 | 1.71 | 3.23 µM | 2.76 | 19.1 | 3.15 | 15 | 1.86 µM | 3.81 µM | 2.39 | 5.76 | 2.25 | 5.97 | 2.33 | 6.91 | 2.02 | 4.69 |
| NC(Cc1c[nH]c2cc(F)ccc12)C(=O)O (stereo not given) | 912 µM | > 2500 µM | 841 | > 2500 | 820 | > 2500 µM | > 2500 | > 2500 | 2480 | > 2500 | 1120 µM | > 2500 µM | 768 | > 2500 | 1090 | > 2500 | 1290 | > 2500 | 773 | 2280 |
| S=C1SCN(C2CCCCCCCCCCC2)CN1C1CCCCCCCCCCC1 | – | > 100 µM | – | > 100 | – | > 100 µM | – | > 100 | – | > 100 | – | > 100 µM | – | > 100 | – | > 100 | – | > 100 | – | > 100 |
| CN(C)C1C(=O)C(C(N)=O)=C(O)C2(O)C(=O)C3=C(O)c4c(O)cccc4C(C)(O)C3CC12 (stereo not given) | 23.2 µM and > 100 µM | 48.5 µM and > 100 µM | – | > 100 | – | 76.5 µM and > 100 µM | – | > 100 | – | > 100 | 25.7 µM and > 100 µM | 72.2 µM and > 100 µM | – | > 100 | – | > 100 | – | > 100 | – | > 100 |
| CCN(CC)CCC(=O)N1C/C(=C/c2ccccc2)C(=O)/C(=C\c2ccccc2)C1 | – | 2.62 µM | – | 1.81 | – | 0.949 µM | – | 13.6 | – | 13.7 | – | 6.74 µM | – | 11.4 | – | 9.76 | – | 1.69 | – | 2.29 |
| O=C(Nc1ccc(-n2ccc3c(NC(=O)c4ccccc4)nccc32)cc1)c1ccc(N2CCOCC2)c(C(F)(F)F)c1 | 0.0429 µM | > 100 µM | 4.73 | > 67.9 | 0.0334 | 7.06 µM | 3.9 | > 100 | 3.18 | 59.4 | 0.364 µM | 32.4 µM | 0.0129 | 1.35 | 4.83 | > 76.1 | 0.0734 | 25 | 0.363 | 18.2 |
| COc1ccc(-c2cc(-c3ccc(Cl)cc3)nc(SCCCCCCC(=O)NO)n2)cc1 | 1.72 µM | 8.86 µM | 2.16 | 14 | 1.22 | 3.05 µM | 2.61 | 22.3 | 1.9 | 23.9 | 1.88 µM | 11.5 µM | 1.29 | 8.9 | 1.66 | 12.5 | 1.73 | > 50 | 1.2 | 7.86 |
| CSC1SCC2C(=O)N(C)C(C(C)C)C(=O)OCC(NC(=O)c3cnc4ccccc4n3)C(=O)NC(C)C(=O)N(C)C1C(=O)N(C)C(C(C)C)C(=O)OCC(NC(=O)c1cnc3ccccc3n1)C(=O)NC(C)C(=O)N2C (stereo not given) | < 0.001 µM | – | < 0.001 | 0.0158 | < 0.001 | – | < 0.001 | – | 0.00325 | – | < 0.001 µM | – | < 0.001 | – | < 0.001 | – | < 0.001 | – | < 0.001 | – |
| NC(N)=NC(N)=Nc1ccc(S(N)(=O)=O)cc1 | – | > 100 µM | – | > 100 | – | > 100 µM | – | > 100 | – | > 100 | – | > 100 µM | – | > 100 | – | > 100 | – | > 100 | – | > 100 |
| CCCc1n(Cc2ccc3ccccc3n2)cc[n+]1Cc1ccc2ccccc2c1 | 0.428 µM | 8.27 µM | 0.23 | 1.43 | 1.07 | 2.95 µM | 2.16 | 14.9 | 1.2 | 7.6 | 0.319 µM | 1.34 µM | 0.658 | 10.6 | 2.39 | 12.5 | 0.647 | 4.7 | 0.249 | 1.13 |
| CCCCCCC/C=C1\CCC(CN(C)C)C1=O (stereo not given) | – | 9.53 µM | – | 28 | – | 15 µM | – | 22.8 | – | 48.4 | – | 25.5 µM | – | 40.5 | – | 36.7 | – | 16.4 | – | 11.2 |
| N#Cc1ccc(NC(=O)Nc2nc3ccc(OC(F)(F)F)cc3s2)cc1 | 0.534 µM | 26.1 µM | 2.78 | 9.36 | 1.47 | 4.67 µM | 1.36 | 14.7 | 1.98 | 10.4 | 1.68 µM | 3.9 µM | 0.605 | 7.81 | 4.28 | 16.1 | 1 | 11.6 | 0.427 | 3.09 |
| CCCCCCC(O)C(O)CCC(O)C1CCC(CCCCC(O)CC2=CC(C)OC2=O)O1 (stereo not given) | – | 27.6 µM | – | 66.8 | 4.48 | 5.02 µM and 27.7 µM | 0.291 | 12 | 15.2 | 34.7 | 14.4 µM | 4.36 µM and 29.7 µM | 10.5 | 26.9 | 23.7 | 46.2 | 10.1 | 28 | – | 22.8 |
| C=C(C)[C@@H]1CC[C@]2(CN)CC[C@]3(C)[C@H](CC[C@@H]4[C@@]5(C)CCC(N)[C@@](C)(CO)[C@@H]5CC[C@]43C)[C@@H]12 (stereo not given in full) | 0.325 µM | 1.06 µM | 1.66 | 3.2 | 1.64 | 3.1 µM | 1.55 | 3.05 | 1.94 | 4.09 | 1.75 µM | 3.38 µM | 1.87 | 3.51 | 1.73 | 3.15 | 1.53 | 3.2 | 1.86 | 3.5 |
| CN1CCN(Cc2ccc(NC(=O)c3cccc(C#Cc4c(N)ncc5ccc(F)cc45)c3)cc2C(F)(F)F)CC1 | 0.005 µM | 0.674 µM | 2.11 | 6.66 | 0.597 | 1.25 µM | 0.879 | 1.95 | 0.265 | 2.7 | 0.737 µM | 1.66 µM | 0.885 | 1.72 | 0.849 | 1.76 | 0.768 | 1.53 | 0.756 | 1.53 |
| CC(C)Cc1ccc(C(C)/C=C2\CCC(CN3CCCCC3)C2=O)cc1 (stereo not given) | – | 9.19 µM | – | 34.4 | – | 3.99 µM | – | 21.1 | – | 32.2 | – | 15.6 µM | – | 66.1 | – | 31.6 | – | 4.08 | – | 2.9 |

Source: PubChem BioAssay (NCI)
